Test results reported in US20040203128A1, “Use of PP2A phosphatase modulators in the treatment of mental disorders” (priority 2002, published 2004).

Key:
GSK-3β = assay: In vitro phosphorylation assay of GST-2E11 with recombinant GSK-3β kinase and PKA; format: biochemical; conditions: LiCl at final concentration 0, 8.3, 25, 75 and 225 mM; signal negatively correlated with concentration
Protocol: Expression and purification of the GST-2E11 fusion protein were performed as described above. Beads with bound fusion protein corresponding to 1 ml of bacterial clear lysate were washed three times in NETN and one time with HMK buffer without DTT (20 mM Tris-HCl [pH 7.5], 120 mM NaCl, 12 mM MgCl2). Beads were resuspended in 240 μl of reaction mix (24 μl of 10×HMK Buffer with 20 mM DTT, 40 units of Protein Kinase A Catalytic Subunit [PKA from bovine heart, 250 units/vial, Sigma] in 40 mM DTT, 5 μl of 24 mM ATP and 207 μl of distilled water) and incubated for 30 min at room temperature. Beads were then washed three times in NETN buffer and one time in GSK-3β reaction buffer (20 mM Tris-HCl [pH 7.5], 10 mM MgCl2, 5 mM DTT) (New England Biolabs). Beads were then resuspended in 50 μl of reaction mix (5 μl of 10×GSK-3β reaction buffer, 1 μl of [^32P]γATP 10mCi/ml, 50 U of recombinant GSK-3β[New England Biolabs], and distilled water for a final volume of 50 μl) and incubated at room temperature for 30 min. After three washes in NETN buffer, phosphorylated proteins were boiled in 2× Sample Buffer (125 mM Tris-HCl [pH 6.8], 4% SDS, 20% glycerol, 1.4 M β-Mercapto ethanol), resolved by 10% SDS-PAGE, and visualized by autoradiography.
In this phosphorylation assay, non-radiolabeled polypeptides to be tested are incubated in the presence of GSK-3β, PKA and radioactive ATP. […]

PP2A phosphatase = assay: In vitro dephosphorylation of phosphorylated GST-2E11 with HTB-14 whole cell extracts; format: biochemical, Human; conditions: HTB-14 cell extracts plus 400 μM okadaic acid, 30 min, room temperature
Protocol: In vitro phosphorylated GST-2E11 fusion protein was incubated at room temperature for 30 min with 500 μg of whole cell extracts of Human glioblastoma, astrocytoma cell line (ATCC number: HTB-14) with or without 400 μM of the PP2A phosphatase inhibitor okadaic acid (Sigma). HTB-14 whole cell extracts were prepared as follow: cells were washed three times with ice-cold TBS buffer (10 mM Tris-HCl [pH 8.0], 120 mM NaCl) and lysed at 4° C. for 30 min in EBC buffer (50 mM Tris-HCl [pH 8.0], 120 mM NaCl, 0.5% Nonidet P-40). Then the lysate was centrifugated for 10 min at 13.000×g at 4° C. to pellet cell debris. Proteins present in the supernatant were quantified by the standard Bradford's method (Bio-Rad Protein Assay). The proteins were then resolved by 10% SDS-PAGE, and visualized by autoradiography.
The phosphorylated radiolabeled GST-2E11 proteins obtained from the previous assay were incubated in the presence of HTB-14 cell extracts containing the PP2A phosphatase to determine whether PP2A is capable of dephosphorylating GST-2E11 proteins. In this experiment, a protein that is dephosphorylated by PP2A is not radioactive after incubation in the presence of HTB-14 cell extracts any more. Thus dephosphorylation of the GST-2E11 protein is monitored by disappearance of the signal visualized by autoradiography. […]

Structure (SMILES) | intensity of the GST-2E11 band (phosphorylation) in the presence of LiCl (GSK-3β) | intensity of the GST-2E11 band versus phosphorylated GST-2E11 reference (inhibition of dephosphorylation) (PP2A phosphatase)
[Cl-].[Li+] [LiCl] | decreased | –
C=C1[C@@H](O)[C@@H]2O[C@]3(CC[C@H](/C=C/[C@@H](C)[C@@H]4CC(C)=C[C@@]5(O[C@H](C[C@@](C)(O)C(=O)O)CC[C@H]5O)O4)O3)CC[C@H]2O[C@@H]1[C@@H](O)C[C@H](C)[C@H]1O[C@@]2(CCCCO2)CC[C@H]1C [okadaic acid] | – | only slightly weaker
